Four compounds from ChEMBL document CHEMBL1126314, “A dideazatetrahydrofolate analogue lacking a chiral center at C-6, N-[4-[2-(2-amino-3,4-dihydro-4-oxo-7H-pyrrolo[2,3-d]pyrimidin-5-yl)ethyl]benzoyl]-L-glutamic acid, is an inhibitor of thymidylate synthase” (J Med Chem, 1992) can be followed below.

Data set [1] can be described thus: First-order rate constant of the compound. In kind it is ADME.
In a further data set the target is Thymidylate synthase (Mus musculus, UniProt P07607). Description: Compound was evaluated for competitive inhibition of recombinant mouse thymidylate synthase.
A short description of data set [2]: First-order rate constant was determined. In kind it is ADME.
Data set [3] is described as follows: Km was determined. In kind it is ADME.
For a further data set, the system named is L1210. Nature of the data set: Compound was evaluated for the half-maximal inhibition against mouse L1210 leukemic cell growth. In kind it is functional, cell-based.
Another data set has as its system CCRF-CEM. Description: Compound was evaluated for the half-maximal inhibition against human CCRF-CEM lymphoblastic leukemic cell growth. Type of data set: functional, cell-based.

Thymidylate synthase, sequence (P07607 whole entry): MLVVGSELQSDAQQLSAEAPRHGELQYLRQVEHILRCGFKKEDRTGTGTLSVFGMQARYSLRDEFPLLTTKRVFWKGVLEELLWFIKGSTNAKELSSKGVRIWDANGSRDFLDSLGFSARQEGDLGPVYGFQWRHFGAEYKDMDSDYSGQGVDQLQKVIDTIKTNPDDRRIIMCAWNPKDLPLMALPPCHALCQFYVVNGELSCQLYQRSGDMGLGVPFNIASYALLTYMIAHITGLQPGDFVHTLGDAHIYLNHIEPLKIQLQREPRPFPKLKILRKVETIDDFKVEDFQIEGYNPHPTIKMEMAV

By Ki is commonly meant the dissociation constant of the complex between target and ligand, obtained from inhibition or displacement. Turning to `Nc1nc(O)c2c(n1)NCC(CCc1ccc(C(=O)NC(CCC(=O)O)C(=O)O)cc1)C2` (centres undefined), the Rate constant in data set [1] is 32. In addition, on Thymidylate synthase, the Ki came to 30 nM.

For `Nc1nc(N)c2nc(CNc3ccc(C(=O)N[C@@H](CCC(=O)O)C(=O)O)cc3)cnc2n1` [AMINOPTERIN], the Rate constant in data set [2] came out at 10.1.

Take `CN(Cc1cnc2nc(N)nc(N)c2n1)c1ccc(C(=O)N[C@@H](CCC(=O)O)C(=O)O)cc1` [METHOTREXATE]: the Rate constant in data set [1] amounted to 0.9.

For orientation: Km means the substrate concentration at which the rate is half of its maximum. One may read the IC50 as the midpoint of a concentration-inhibition curve. A higher IC50 goes with lower potency. For `Nc1nc2[nH]cc(CCc3ccc(C(=O)N[C@@H](CCC(=O)O)C(=O)O)cc3)c2c(=O)[nH]1` [PEMETREXED], the Km in data set [3] was found to be 0.8 µM. Further, the results for the concentration for half-maximal inhibition (IC50) in the data set on L1210 and in the data set with CCRF-CEM were 22 nM and 16 nM, respectively. In data set [1], this compound showed a Rate constant of 400. Moreover, the Ki on Thymidylate synthase was 340 nM.
